PubChem BioAssay (NCI)
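Assay format: 96-well plates, 48-hour exposure. The concentration for full growth arrest is given as TGI.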

Columns and labels:
Assay in all cases: NCI tumour cell line growth inhibition, 48 h
[1] = system: A498 renal
[2] = system: A549 NSCLC
[3] = system: ACHN renal
[4] = system: BT-549 breast
[5] = system: CAKI-1 renal
[6] = system: CCRF-CEM leukemia
[7] = system: COLO 205 colon
[8] = system: DU-145 prostate
[9] = system: EKVX NSCLC
[10] = system: HCC-2998 colon
[11] = system: HCT-15 colon
[12] = system: HL-60(TB) leukemia
[13] = system: HOP-92 NSCLC
[14] = system: HT29 colon
[15] = system: IGROV1 ovarian
[16] = system: K-562 leukemia
[17] = system: KM12 colon
[18] = system: LOX IMVI melanoma
[19] = system: MALME-3M melanoma
[20] = system: MCF7 breast
[21] = system: MDA-MB-435
[22] = system: MDA-N
[23] = system: MOLT-4 leukemia
[24] = system: NCI-H226 lung
[25] = system: NCI-H23 lung
[26] = system: NCI-H460 lung
[27] = system: NCI-H522 lung
[28] = system: NCI/ADR-RES ovarian
[29] = system: OVCAR-3 ovarian
[30] = system: OVCAR-4 ovarian
[31] = system: OVCAR-5 ovarian
[32] = system: OVCAR-8 ovarian
[33] = system: PC-3 prostate
[34] = system: RPMI-8226 leukemia
[35] = system: RXF 393 renal
[36] = system: SF-268 CNS
[37] = system: SF-295 CNS
[38] = system: SF-539 CNS
[39] = system: SK-MEL-2 melanoma
[40] = system: SK-MEL-28 melanoma
[41] = system: SK-MEL-5 melanoma
[42] = system: SK-OV-3 ovarian
[43] = system: SN12C renal
[44] = system: SNB-19 CNS
[45] = system: SNB-75 CNS
[46] = system: SW-620 colon
[47] = system: T-47D breast
[48] = system: U251 CNS
[49] = system: UACC-257 melanoma
[50] = system: UACC-62 melanoma
[51] = system: UO-31 renal
[52] = system: 786-0 renal
[53] = system: HCT-116 colon
[54] = system: M14 melanoma
[55] = system: MDA-MB-231 breast
[56] = system: TK-10 renal
[57] = system: HOP-62 NSCLC
[58] = system: SR leukemia

In the case of `COc1nc(-c2cn(S(=O)(=O)c3ccc(C)cc3)c3ccc(Br)cc23)cc(C(F)(F)F)c1C#N`, the TGI [1] is reported as greater than 100 µM, the TGI [2] is reported as greater than 100 µM and the TGI [3] is reported as greater than 100 µM. It also gave a TGI [4] of 74.2 µM, a TGI [5] greater than 100 µM and a TGI [6] greater than 100 µM. It also gave a TGI [7] greater than 100 µM, a TGI [8] of 31.3 µM and a TGI [9] greater than 100 µM. It also gave a TGI [10] greater than 100 µM, a TGI [11] greater than 100 µM and a TGI [12] greater than 100 µM. The TGI [13] was greater than 100 µM, the TGI [14] was greater than 100 µM and the TGI [15] was greater than 100 µM. It also gave a TGI [16] greater than 100 µM, a TGI [17] greater than 100 µM and a TGI [18] greater than 100 µM. It also gave a TGI [19] greater than 100 µM, a TGI [20] greater than 100 µM and a TGI [21] greater than 100 µM. It also gave a TGI [22] greater than 100 µM, a TGI [23] greater than 100 µM and a TGI [24] of 53.9 µM. The TGI [25] was 44.9 µM, the TGI [26] was greater than 100 µM and the TGI [27] was greater than 100 µM. For the same compound, the TGI [28] was greater than 100 µM, the TGI [29] was 35.8 µM and the TGI [30] was greater than 100 µM. For the same compound, the TGI [31] was greater than 100 µM, the TGI [32] was 64.9 µM and the TGI [33] was greater than 100 µM. The TGI [34] was 41.8 µM, the TGI [35] was 58.8 µM and the TGI [36] was greater than 100 µM. The TGI [37] was greater than 100 µM, the TGI [38] was greater than 100 µM and the TGI [39] was greater than 100 µM. For the same compound, the TGI [40] was greater than 100 µM, the TGI [41] was greater than 100 µM and the TGI [42] was 59.5 µM. It also gave a TGI [43] greater than 100 µM, a TGI [44] of 62.4 µM and a TGI [45] of 49.4 µM. The TGI [46] was greater than 100 µM, the TGI [47] was 42.9 µM and the TGI [48] was 35.2 µM. For the same compound, the TGI [49] was greater than 100 µM, the TGI [50] was greater than 100 µM and the TGI [51] was greater than 100 µM.

`CC(C(N)=O)N(C)C(=O)c1cc2ccccc2[n+](Cc2ccccc2)c1` (centres undefined) gave a TGI [52] greater than 100 µM, a TGI [1] greater than 100 µM and a TGI [2] greater than 100 µM. The TGI [3] was greater than 100 µM, the TGI [4] was greater than 100 µM and the TGI [5] was greater than 100 µM. For the same compound, the TGI [6] was greater than 100 µM, the TGI [7] was greater than 100 µM and the TGI [8] was greater than 100 µM. For the same compound, the TGI [10] was greater than 100 µM, the TGI [53] was greater than 100 µM and the TGI [11] was greater than 100 µM. It also gave a TGI [12] greater than 100 µM, a TGI [13] greater than 100 µM and a TGI [14] greater than 100 µM. It also gave a TGI [15] greater than 100 µM, a TGI [16] greater than 100 µM and a TGI [17] greater than 100 µM. The TGI [54] was greater than 100 µM, the TGI [19] was greater than 100 µM and the TGI [20] was greater than 100 µM. The TGI [55] was greater than 100 µM, the TGI [21] was greater than 100 µM and the TGI [22] was greater than 100 µM. It also gave a TGI [23] greater than 100 µM, a TGI [24] greater than 100 µM and a TGI [25] greater than 100 µM. The TGI [26] was greater than 100 µM, the TGI [27] was greater than 100 µM and the TGI [28] was greater than 100 µM. It also gave a TGI [29] greater than 100 µM, a TGI [30] greater than 100 µM and a TGI [31] greater than 100 µM. It also gave a TGI [32] greater than 100 µM, a TGI [33] greater than 100 µM and a TGI [34] greater than 100 µM. The TGI [35] was greater than 100 µM, the TGI [36] was greater than 100 µM and the TGI [37] was greater than 100 µM. It also gave a TGI [38] greater than 100 µM, a TGI [39] greater than 100 µM and a TGI [40] greater than 100 µM. The TGI [41] was greater than 100 µM, the TGI [43] was greater than 100 µM and the TGI [44] was greater than 100 µM. For the same compound, the TGI [45] was greater than 100 µM, the TGI [46] was greater than 100 µM and the TGI [47] was greater than 100 µM. For the same compound, the TGI [56] was greater than 100 µM, the TGI [48] was greater than 100 µM and the TGI [49] was greater than 100 µM. For the same compound, the TGI [50] was greater than 100 µM and the TGI [51] was greater than 100 µM.

Work on `Cc1cc(S(=O)(=O)Nc2nc(N)nc(N(C)C)n2)c(S)cc1Cl` yielded a TGI [52] greater than 10 µM, a TGI [1] greater than 10 µM and a TGI [2] greater than 10 µM. The TGI [3] was greater than 10 µM, the TGI [4] was greater than 10 µM and the TGI [5] was greater than 10 µM. It also gave a TGI [6] greater than 10 µM, a TGI [7] greater than 10 µM and a TGI [8] greater than 10 µM. The TGI [9] was greater than 10 µM, the TGI [10] was greater than 10 µM and the TGI [53] was greater than 10 µM. For the same compound, the TGI [11] was greater than 10 µM, the TGI [12] was greater than 10 µM and the TGI [57] was greater than 10 µM. For the same compound, the TGI [13] was greater than 10 µM, the TGI [14] was greater than 10 µM and the TGI [15] was greater than 10 µM. The TGI [16] was greater than 10 µM, the TGI [17] was greater than 10 µM and the TGI [18] was greater than 10 µM. It also gave a TGI [54] greater than 10 µM, a TGI [19] greater than 10 µM and a TGI [20] greater than 10 µM. For the same compound, the TGI [22] was greater than 10 µM, the TGI [23] was greater than 10 µM and the TGI [24] was greater than 10 µM. It also gave a TGI [25] greater than 10 µM, a TGI [26] greater than 10 µM and a TGI [27] greater than 10 µM. It also gave a TGI [28] greater than 10 µM, a TGI [29] greater than 10 µM and a TGI [30] greater than 10 µM. For the same compound, the TGI [31] was greater than 10 µM, the TGI [32] was greater than 10 µM and the TGI [33] was greater than 10 µM. The TGI [34] was greater than 10 µM, the TGI [35] was greater than 10 µM and the TGI [36] was greater than 10 µM. It also gave a TGI [37] greater than 10 µM, a TGI [38] greater than 10 µM and a TGI [39] greater than 10 µM. For the same compound, the TGI [40] was greater than 10 µM, the TGI [41] was greater than 10 µM and the TGI [42] was greater than 10 µM. For the same compound, the TGI [43] was greater than 10 µM, the TGI [44] was greater than 10 µM and the TGI [45] was greater than 10 µM. It also gave a TGI [58] greater than 10 µM, a TGI [46] greater than 10 µM and a TGI [47] greater than 10 µM. For the same compound, the TGI [56] was greater than 10 µM, the TGI [48] was greater than 10 µM and the TGI [49] was greater than 10 µM. For the same compound, the TGI [51] was greater than 10 µM.
